Assay results taken from patent US11000515B2, “Compounds that interact with the Ras superfamily for the treatment of cancers, inflammatory diseases, rasopathies, and fibrotic disease” (Shy Therapeutics LLC, priority 2017, dated 2021).
Where two headings read alike, the source gives them in different places.

Legend:
[1] = molecular target: KRas G12D/Q61H double mutant (Homo sapiens (Human), UniProt P01116, G12D/Q61H); test: Ras GTP binding domain inhibition assay (labeled GTP)
Procedure: (§1) Buffer-I: • 50 mM Tris, pH 7.5 • 150 mM NaCl (optional) • 1 mM MgCl2 • 1 mM DTT. • KRas G12D mutant protein was expressed as a His-tagged protein. Purified His-KRas G12D protein was diluted in buffer-I to a final concentration of 3-10 μg/ml. • 200 μl of the diluted His-KRas G12D protein was added to a nickel coated 96 well plate and incubated overnight at 4° C. • The next day, wells were washed 3× in 200 μl of Buffer-I. • Then 200 μl of Buffer-I were added to each well in the presence of 1% DMSO. • Tested compounds were added to the protein-coated wells at a concentration of 20 μM, and incubated for 3 hours at room temperature. While performing IC50 measurements a serial dilution of all tested concentrations was prepared.
(§2) Then 22 μl of Cy3-GTP or Cy5-GTP was added to each well. The labeled GTP was incubated for 45 min. at room temperature. • Following GTP incubation, wells were washed 3× in Buffer-I, and 200 μl of Buffer-I were added to each well. • Following washes, the amount of bound labeled-GTP was measured with an Eppendorf AF2200 plate reader.
(§3) By substituting KRas G12D mutant protein with KRas G12C mutant, KRas wild type, KRas Q61H mutant, KRas G12D/Q61H double mutant or KRas G12C/Q61H double mutant under the assay conditions described above, KRas G12C mutant KRas wild type, KRas Q61H mutant, KRas G12D/Q61H double mutant and KRas G12C/Q61H double mutant inhibition, respectively, were each determined.

[2] = tested on: IL6 production in RAW 264.7 macrophage cell line; test: Mouse IL6 quantification assay (LPS-stimulated RAW 264.7, ELISA); assay type: cell-based; conditions: RAW264.7, LPS-stimulated RAW 264.7 macrophage cell line, read-out: IL-6 % Inhibition at 30 μM
[3] = tested on: TNFα production in RAW 264.7 macrophage cell line; test: Mouse TNF alpha quantification assay (LPS-stimulated RAW 264.7, ELISA); assay type: cell-based; conditions: RAW264.7, LPS-stimulated RAW 264.7 macrophage cell line, read-out: TNF-α % Inhibition at 30 μM
KRas G12C mutant = KRas G12C mutant (Homo sapiens (Human), UniProt P01116, G12C); test: Ras GTP binding domain inhibition assay (labeled GTP)
Procedure: as §1, §2, §3

KRas wild type = KRas wild type (Homo sapiens (Human), UniProt P01116); test: as above
Procedure: as §1, §2, §3

KRas G12D mutant protein = KRas G12D mutant protein (Homo sapiens (Human), UniProt P01116, G12D); test: as above
Procedure: The following method was developed as specific assay for KRas G12D mutant protein.
as §1, §2

[4] = molecular target: KRas G12C/Q61H double mutant (Homo sapiens (Human), UniProt P01116, G12C/Q61H); test: as above
Procedure: as §1, §2, §3

KRas Q61H mutant = KRas Q61H mutant (Homo sapiens (Human), UniProt P01116, Q61H); test: as above
Procedure: as §1, §2, §3

[5] = compound at 20 μM, read-out: % Inhibition at 20 μM, KRas G12D Q61H
[6] = 20 μM compound, read-out: % Inhibition at 20 μM, KRas G12D Q61H

Chain of KRas wild type (P01116-2 other isoform, or with tags, fused parts or gaps): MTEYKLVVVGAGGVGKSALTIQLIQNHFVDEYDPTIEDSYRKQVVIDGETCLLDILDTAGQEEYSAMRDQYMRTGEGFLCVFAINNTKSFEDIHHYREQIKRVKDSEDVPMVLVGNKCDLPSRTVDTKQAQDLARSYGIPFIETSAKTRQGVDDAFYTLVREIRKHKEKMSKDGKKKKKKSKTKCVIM
Chain of KRas G12C mutant (P01116-2 other isoform, or with tags, fused parts or gaps G12C): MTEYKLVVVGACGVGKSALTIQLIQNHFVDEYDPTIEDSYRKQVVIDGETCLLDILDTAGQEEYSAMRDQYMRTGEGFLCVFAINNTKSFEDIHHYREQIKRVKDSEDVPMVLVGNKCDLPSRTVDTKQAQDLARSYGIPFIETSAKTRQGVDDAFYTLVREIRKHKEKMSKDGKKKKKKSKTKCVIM
Chain of KRas G12C/Q61H double mutant (P01116-2 other isoform, or with tags, fused parts or gaps G12C/Q61H): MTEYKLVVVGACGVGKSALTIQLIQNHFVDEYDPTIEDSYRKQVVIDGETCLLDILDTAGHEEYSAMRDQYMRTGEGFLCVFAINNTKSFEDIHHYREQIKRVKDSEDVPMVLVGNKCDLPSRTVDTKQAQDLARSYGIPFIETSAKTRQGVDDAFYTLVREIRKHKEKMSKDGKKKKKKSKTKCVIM
Chain of KRas G12D/Q61H double mutant (P01116-2 other isoform, or with tags, fused parts or gaps G12D/Q61H): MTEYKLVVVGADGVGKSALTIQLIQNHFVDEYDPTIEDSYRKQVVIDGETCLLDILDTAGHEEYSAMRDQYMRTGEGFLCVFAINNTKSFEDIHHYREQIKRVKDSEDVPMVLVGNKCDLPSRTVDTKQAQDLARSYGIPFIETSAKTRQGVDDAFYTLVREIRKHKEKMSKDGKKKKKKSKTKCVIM
Chain of KRas G12D mutant protein (P01116-2 other isoform, or with tags, fused parts or gaps G12D): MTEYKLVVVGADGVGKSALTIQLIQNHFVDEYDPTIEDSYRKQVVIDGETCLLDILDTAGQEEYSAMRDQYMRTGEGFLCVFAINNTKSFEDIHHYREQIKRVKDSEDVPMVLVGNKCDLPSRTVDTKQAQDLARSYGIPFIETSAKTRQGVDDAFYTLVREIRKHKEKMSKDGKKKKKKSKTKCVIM
Chain of KRas Q61H mutant (P01116-2 other isoform, or with tags, fused parts or gaps Q61H): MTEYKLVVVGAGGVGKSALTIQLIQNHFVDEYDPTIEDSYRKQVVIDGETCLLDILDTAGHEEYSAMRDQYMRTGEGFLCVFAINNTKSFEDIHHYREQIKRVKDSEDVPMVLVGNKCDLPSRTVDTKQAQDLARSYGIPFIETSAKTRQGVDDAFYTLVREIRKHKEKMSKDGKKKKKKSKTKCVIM

Cc1ccc(OCc2nnc(SCC3CCCOC3)o2)cc1 (stereo not shown)
inhibition at 20 µM [1, 5]: 1 to 25%

CN(CC(=O)N1CCOCC1)c1nc(-c2ccccn2)nc2scc(-c3ccccc3)c12
inhibition at 30 µM [2]: 1 to 25%
inhibition at 30 µM [3]: 1 to 25%

Cc1cc2nc(-c3ccccn3)nc(O)c2s1
inhibition at 20 µM (KRas G12C mutant; compound at 20 μM): 1 to 25%
inhibition at 20 µM (KRas wild type; compound at 20 μM): 25 to 50%

COc1cccc(C(=O)Nc2nc(-c3ccccn3)cs2)c1
inhibition at 30 µM [2]: 1 to 25%
inhibition at 30 µM [3]: 0%

O=C(CCc1cnn(-c2ccccc2)c1)Nc1nnc(-c2ccccn2)[nH]1
inhibition at 30 µM [2]: 26 to 50%
inhibition at 30 µM [3]: 1 to 25%

COc1ccc(CCOC(=O)Nc2ccnc(-c3ccccn3)n2)cn1
inhibition at 20 µM [1, 5]: 25 to 50%

O=C(CCC1N=NN=N1)Nc1nc(-c2ccccn2)nc2sccc12
inhibition at 20 µM (KRas G12D mutant protein; compound at 20 μM): 51 to 75%
inhibition at 20 µM (KRas G12C mutant; compound at 20 μM): 25 to 50%
inhibition at 20 µM ([4]; compound at 20 μM): 51 to 75%
inhibition at 20 µM [1, 5]: 51 to 75%
inhibition at 20 µM (KRas wild type; compound at 20 μM): 51 to 75%
inhibition at 20 µM (KRas Q61H mutant; compound at 20 μM): 51 to 75%

COc1cc(CNc2nc(-c3ccccn3)nc3scc(-c4ccccc4)c23)ccc1OCC(N)=O
inhibition at 30 µM [2]: 76 to 100%
inhibition at 30 µM [3]: 76 to 100%

CC(C)c1cnc(CN2CC(C)N(Cc3ncc(C(C)C)o3)c3ccccc32)o1 (stereo not shown)
inhibition at 20 µM [1, 6]: 25 to 50%

O=C(c1csc2c(O)nc(-c3ccccn3)nc12)N1CCN(c2ccccc2)CC1
inhibition at 30 µM [2]: 76 to 100%
inhibition at 30 µM [3]: 51 to 75%

O=C(Nc1nnc(-c2ccccn2)s1)c1csc(-c2ccco2)n1
inhibition at 30 µM [2]: 51 to 75%
inhibition at 30 µM [3]: 0%

Cc1cc(OC(C)COc2ccc(Oc3ccccc3)cc2)ncc1C(F)(F)F (stereo not shown)
inhibition at 20 µM [1, 6]: 51 to 75%

OC[C@H]1O[C@@H](c2csc3c2N=C(c2ccccn2)NC3O)[C@H](O)[C@@H]1O (stereo partly shown)
inhibition at 20 µM (KRas G12D mutant protein; 20 μM compound): 25 to 50%
inhibition at 20 µM (KRas G12C mutant; 20 μM compound): 51 to 75%
inhibition at 20 µM ([4]; 20 μM compound): 25 to 50%
inhibition at 20 µM [1, 6]: 25 to 50%
inhibition at 20 µM (KRas wild type; 20 μM compound): 25 to 50%
inhibition at 20 µM (KRas Q61H mutant; 20 μM compound): 51 to 75%

CC(NC(=O)c1csc(-c2ccccc2)n1)c1ccccn1 (stereo not shown)
inhibition at 20 µM [1, 6]: 1 to 25%

COc1cccc(-c2nc(C(=O)N3CCC(c4ccccc4)CC3)cs2)c1OC
inhibition at 20 µM [1, 6]: 25 to 50%

Cc1ccccc1N(CC(=O)NCC1CCCCCCC1)S(C)(=O)=O
inhibition at 20 µM [1, 6]: 1 to 25%

CCN(CC)S(=O)(=O)c1cc(C)c(C)c(NC(=O)CCc2c(C)cc(-c3ccccn3)nc2O)c1
inhibition at 20 µM ([1]; 20 μM, read-out: KRas G12D Q61H % Inh.): 51 to 75%

COCc1ccc(C2CCCN2c2ccc(C#N)c(C(F)(F)F)c2)o1 (stereo not shown)
inhibition at 20 µM [1, 6]: 25 to 50%

Cn1cnc(-c2nc(O)c3c(C4C=CC=CC4)c(-c4ccncc4)sc3n2)c1 (stereo not shown)
inhibition at 20 µM ([4]; 20 μM compound): 1 to 25%
inhibition at 20 µM [1, 6]: 1 to 25%
inhibition at 20 µM (KRas Q61H mutant; 20 μM compound): 1 to 25%

CC(C)C(=O)Nc1nc(CC(=O)Nc2nnc(-c3ccccc3)[nH]2)cs1
inhibition at 30 µM [2]: 0%
inhibition at 30 µM [3]: 1 to 25%

CN(C)COc1ccc(-c2csc3c(O)nc(-c4ccccn4)nc23)cn1
inhibition at 20 µM (KRas G12D mutant protein; compound at 20 μM): 51 to 75%
inhibition at 20 µM (KRas G12C mutant; compound at 20 μM): 51 to 75%
inhibition at 20 µM ([4]; compound at 20 μM): 51 to 75%
inhibition at 20 µM [1, 5]: 51 to 75%
inhibition at 20 µM (KRas wild type; compound at 20 μM): 51 to 75%
inhibition at 20 µM (KRas Q61H mutant; compound at 20 μM): 51 to 75%

Oc1nc(-c2ccccn2)nc2ccsc12
inhibition at 20 µM (KRas G12D mutant protein; compound at 20 μM): 1 to 25%
inhibition at 20 µM (KRas G12C mutant; compound at 20 μM): 25 to 50%
inhibition at 20 µM ([4]; compound at 20 μM): 25 to 50%
inhibition at 20 µM [1, 5]: 25 to 50%
inhibition at 20 µM (KRas wild type; compound at 20 μM): 1 to 25%
inhibition at 20 µM (KRas Q61H mutant; compound at 20 μM): 51 to 75%

O=C(Nc1nc(-c2ccccn2)cs1)c1cccc(F)c1
inhibition at 30 µM [2]: 1 to 25%
inhibition at 30 µM [3]: 0%

COc1ccc(CCNC(=O)c2cc(S(=O)(=O)N3CCCCCC3)ccc2OC)cc1OC
inhibition at 20 µM [1, 5]: 25 to 50%

COCCNc1nc(-c2nccn2C)nc2sc(-c3ccccc3)c(-c3ccccc3)c12
inhibition at 20 µM (KRas G12D mutant protein; 20 μM compound): 0%

CN(C)Cc1cc(F)cc(-c2csc3c(O)nc(-c4ccccn4)nc23)c1
inhibition at 30 µM [2]: 76 to 100%
inhibition at 30 µM [3]: 51 to 75%

COc1cnc(CNC(=O)c2csc3nc(-c4ccccn4)nc(N)c23)[nH]c1=O
inhibition at 20 µM ([4]; 20 μM compound): 25 to 50%
inhibition at 20 µM (KRas Q61H mutant; 20 μM compound): 25 to 50%

OCC1(Cc2ccccc2)CCCN1c1nc(-c2ccccc2)nc2c1CCC2 (stereo not shown)
inhibition at 20 µM [1, 6]: 25 to 50%

CS(=O)(=O)CCCC(=O)N1CCCc2c(O)nc(-c3ccccn3)nc21
KRas G12D Q61H % Inh. ([1]; 20 μM): C (C = 51-75% inhibition)

Nc1nc(-c2ccccn2)nc2c(-c3ccccn3)csc12
inhibition at 30 µM [2]: 76 to 100%
inhibition at 30 µM [3]: 76 to 100%
